From publication PMC7747594, “Protease-activated receptor-2 ligands reveal orthosteric and allosteric mechanisms of receptor inhibition” (Communications Biology, 2020)
“And” between values parts separate entries of the source, which are not always exact repeats. Equal values may be shown once. Read-outs that look alike come from different tables or passages of the source. Square brackets hold non-standard residues; d marks the D form. Peptide text beside a SMILES is read from it. * marks the point of attachment. Orn = NCCC[C@H](N)C(=O)O; 2Furoyl = O=C(c1ccco1)*

Assays:
[1] = biological target: T1, hPAR2 (Homo sapiens, UniProt P55085); assay: Schild and allosteric model analysis of Ca^2+ mobilisation in CHO-hPAR2 cells (2f-LIGRL-NH2 or trypsin); type: cell-based; parameters: key to Relative activity: (Emax·EC50')/(Emax'·EC50), Hill slope held at 1; Emax: scale not given here
T1 sequence (P55085 26-397): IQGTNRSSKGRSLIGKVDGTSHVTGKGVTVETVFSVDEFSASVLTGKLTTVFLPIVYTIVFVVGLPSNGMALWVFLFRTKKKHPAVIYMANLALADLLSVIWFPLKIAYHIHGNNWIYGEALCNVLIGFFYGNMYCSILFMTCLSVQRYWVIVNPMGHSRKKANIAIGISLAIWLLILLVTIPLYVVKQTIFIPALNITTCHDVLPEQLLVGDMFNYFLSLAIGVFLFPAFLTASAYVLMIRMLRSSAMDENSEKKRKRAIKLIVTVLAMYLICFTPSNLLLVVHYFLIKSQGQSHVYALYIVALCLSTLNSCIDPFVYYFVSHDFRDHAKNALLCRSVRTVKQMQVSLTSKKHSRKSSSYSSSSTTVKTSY
Protocol: (§1) Cells were loaded with Fluo-8 NW calcium dye (AAT Bioquest) for 30 min at 37 °C before compounds in Hank’s balanced salt solution (HBSS, ThermoFisher Scientific) with 20 mM HEPES (ThermoFisher Scientific), 0.1% bovine serum albumin (BSA, Sigma) and 0.5% DMSO were added and simultaneously evaluated for changes in intracellular [Ca^2+] using FLIPR TETRA (Molecular Devices) to detect agonism. For each concentration, the difference between the maximum peak Ca^2+ response and baseline response is reported. […] Antagonism experiments were also carried out on 1321N1-PAR2[WT], 1321N1-PAR2[F154A], and 1321N1-PAR2[G157C] as described. Experiments with trypsin in 1321N1-hPAR2 cells were performed in the presence of 1 µM Vorapaxar (Chemtronica) to remove any interference of PAR1 activity. […] Antagonism experiments for CHO-hPAR2 and HT-29 cells were performed in 96-well plates at 30,000 cells/well. Cells were loaded with Fluo-3 AM calcium dye (Sigma-Aldrich) for 60 min at 37 °C in HBSS with 1% FBS, 0.2% pluronic acid, 20 mM HEPES and 2.5 mM probenecid prior to the addition of antagonist. The antagonist was pre-incubated for 60 min at 37 °C followed by the addition of bovine trypsin (30 nM) at EC80. Intracellular [Ca^2+] flux was measured using FLIPR TETRA (Molecular Devices) and the difference between the maximum peak Ca^2+ response and baseline response is reported.
(§2) Binding data were analysed using the One site – Fit Ki model in GraphPad Prism 8 (GraphPad Software) to determine binding affinity. Pharmacology in vitro potency data was analysed with a 4-parameter logistic fit using the equation y = Bottom + (Top − Bottom)/[…] where y is the response, x is the 10-logarithm of the drug concentration, Bottom is no response and Top is full response in GraphPad Prism 8 or Genedata Screener (Genedata). pEC50 and pIC50 data are presented as mean ± standard error of the mean (s.e.m.) derived from the number of independent experiments stated. Schild slope analysis was calculated using Graphpad Prism 8 Gaddum/Schild EC50 global fitting (shared model parameters between all data sets) competitive model. […] Schild slope quantifies the shifts in agonist response in the presence of antagonist, a Schild slope of 1 indicates the antagonist is competitive and extra-sum-of-squares F-test (p < 0.05) was used to compare the calculated Schild slope against a hypothetical Schild slope of 1. […] The relative activity was calculated using (EmaxEC50’)/(Emax’EC50) with the Hill slope help constant at 1. EC50’ and Emax’ denote the EC50 and Emax in the absence of allosteric modulator, while EC50 and Emax denote those measured in the presence of allosteric modulator. When the Hill slope = 1, the relative activity plot approaches an asymptote corresponding to the estimate of the γ value.

[2] = biological target: T1, hPAR2; assay: Europium-tagged competition binding assay against Eu-tagged-2f-LIGRLO(dtpa)-NH2 on CHO-hPAR2 cells; parameters: expressed in transfected cells; host or cells: Flp-In CHO; settings: determined with Eu-tagged-2f-LIGRLO(dtpa)-NH2; read-out: equilibrium dissociation constant pKA / pKB (converted)
Protocol: CHO-hPAR2 cells were seeded overnight in 384-well plate at 2.5 × 10^4 cells/well and blocked with 2% BSA for 60 min. […] Cells were washed 3× with PBS supplemented with 20 µM EDTA, 0.01% Tween and 0.2% BSA followed by addition of DELFIA Enhancement Solution (Perkin Elmer) for 90 min. Time-resolved fluorescence was measured with PHERAstar FS reader (BMG Labtech).
as §2

[3] = biological target: T2, rat PAR2 (Rattus norvegicus, UniProt Q63645); assay: Ca^2+ flux assay, inhibition of SLIGRL-NH2 activation in rat KNRK cells; type: cell-based
T2 construct: a rat KNRK cell line with endogenous expression of rat PAR2; host or cells: rat KNRK cells
T2 sequence (Q63645 26-397): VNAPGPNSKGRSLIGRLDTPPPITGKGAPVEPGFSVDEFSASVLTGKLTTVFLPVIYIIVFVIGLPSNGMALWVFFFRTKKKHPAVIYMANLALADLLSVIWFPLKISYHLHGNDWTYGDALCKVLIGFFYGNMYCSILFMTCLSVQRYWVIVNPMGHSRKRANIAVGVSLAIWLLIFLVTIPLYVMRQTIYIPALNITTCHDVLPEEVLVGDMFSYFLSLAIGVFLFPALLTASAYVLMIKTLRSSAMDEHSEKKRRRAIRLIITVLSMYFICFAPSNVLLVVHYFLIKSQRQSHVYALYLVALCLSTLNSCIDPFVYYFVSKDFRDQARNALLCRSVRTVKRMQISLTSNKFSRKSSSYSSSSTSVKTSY

[4] = biological target: T1, hPAR2; assay: pERK1/2 HTRF assay, inhibition of SLIGRL-NH2 in U2OS-hPAR2 cells; type: cell-based; settings: SLIGRL-NH2, U2OS-hPAR2; mean ± s.e.m.; read-out: pERK1/2 (hPAR2) pIC50 (converted)
Protocol: Phosphorylation of ERK1/2 was measured in U2OS-hPAR2 cells using Phospho-ERK1/2 (Thr202/Tyr204) assay kit (64ERKPEH Cisbio) and the 2 plate manufacturer’s protocol with the following modifications. Cells were seeded in McCoy’s 5A media containing 10% FBS at 15,000 cells per well in 384-well plates and incubated overnight at 37 °C, 5% CO2. Antagonist compounds (30 µM–1 nM) were incubated with the cells for 30 min prior to the addition of agonist SLIGRL-NH2 (10 µM) at EC80 and further incubation for 5 min at 37 °C. The supernatant was removed from the wells and lysis buffer was added to the cells and incubated with shaking at room temperature for 30 min. The cell lysate was transferred into a small-volume 384-well plate containing detection antibodies and incubated for 4 h at room temperature in the dark. Plates were read for HTRF signal on PHERAstar (BMG LabTech). In addition, phosphorylation of ERK1/2 was measured in CHO-hPAR2 using AlphaLISA SureFire Ultra pERK1/2 (Thr202/Tyr204) (Perkin Elmer). Cells were seeded at a density of 2000 cells per well in a 384-well proxiplate and incubated overnight. […] After incubation, cell lysis buffer was added with shaking for 30 min. Antibodies and beads were added and incubated for 4 h at room temperature. AlphaLISA signal was measured using a PHERAstar (BMG LabTech).
as §2

[5] = biological target: T1, hPAR2; assay: β-arrestin-2 recruitment assay, inhibition of SLIGRL-NH2 in U2OS-hPAR2 cells; type: cell-based; settings: SLIGRL-NH2, U2OS-hPAR2; mean ± s.e.m.; read-out: β-arrestin (hPAR2) pIC50 (converted)
Protocol: β‐Arrestin-2 recruitment was measured in U2OS-hPAR2 cells using the DiscoverX assay kit, according to the manufacturer’s instructions. Briefly, cells were seeded in McCoy’s 5A media containing 10% FBS at 4000 cells per well in 384-well plates and incubated overnight at 37 °C, 5% CO2. Antagonist compounds (30 µM–1 nM) were incubated with the cells for 30 min prior to the addition of agonist SLIGRL-NH2 (10 µM) at EC80 and further incubation for 90 min at 37 °C. Working detection solution (12 µl) was then added to each well, incubated at room temperature in the dark for 60 min and the chemiluminescence signal read on the EnVision microplate reader (Perkin Elmer).
as §2

[6] = biological target: T1, hPAR2; assay: Ca^2+ flux assay, inhibition of trypsin activation in 1321N1-hPAR2 cells (with 1 µM Vorapaxar); type: cell-based; settings: 1321N1-hPAR2 cells, 1 µM Vorapaxar
[7] = biological target: T1, hPAR2; assay: Ca^2+ flux assay (FLIPR), inhibition of SLIGRL-NH2 activation in 1321N1-hPAR2 cells; type: cell-based; settings: SLIGRL-NH2, 1321N1-hPAR2 cells; mean ± s.e.m.; read-out: Ca^2+ flux (hPAR2) pIC50 (converted)
Protocol: as §1, §2

[8] = biological target: T1, hPAR2; assay: IP1 HTRF assay, inhibition of SLIGRL-NH2 in 1321N1-hPAR2 cells; type: cell-based; settings: SLIGRL-NH2, 1321N1-hPAR2 cells; mean ± s.e.m.; read-out: IP1 (hPAR2) pIC50 (converted)
Protocol: Inhibition of PAR2-induced inositol-1-phosphate (IP1) production was measured in 1321N1-hPAR2 cells using IP-One Gq HTRF assay kit (Cisbio). […] Next, EC80 of SLIGRL-NH2 (70 µM) supplemented with 50 mM LiCl was added and incubated for 60 min at 37 °C. Detection of IP1 production was performed according to the manufacturer’s protocol and HTRF was measured using PHERAstar (BMG LabTech). Data were normalised to [IP1] using a standard curve.
as §2

[9] = test system: parental 1321N1 cells; assay: Ca^2+ flux assay, agonist mode, parental 1321N1 cells; type: cell-based; parameters: Ca2+ response (Fig 2c), individual replicate values: unit not given here; settings: control
Protocol: as §1

[10] = SLIGRL-NH2, rat PAR2 in KNRK cells, mean ± s.e.m., read-out: Ca^2+ flux (rPAR2) pIC50 (converted)
[11] = agonist in presence of AZ3451 0.1 µM
[12] = agonist in presence of AZ3451 0.3 µM
[13] = agonist in presence of AZ3451 1 µM
[14] = agonist in presence of AZ3451 3 µM
[15] = agonist in presence of AZ3451 10 µM
[16] = agonist in presence of AZ3451 30 µM, CHO-hPAR2, Ca^2+

## CC[C@H](C)[C@H](NC(=O)[C@H](CC(C)C)NC(=O)c1ccco1)C(=O)NCC(=O)N[C@@H](CCCNC(=N)N)C(=O)N[C@@H](CC(C)C)C(N)=O [2f-LIGRL-NH2, reference compound]
[1]
  EC50: 250 nM

## CC[C@H](C)[C@H](NC(=O)[C@H](CC(C)C)NC(=O)c1ccco1)C(=O)NCC(=O)N[C@@H](CCCN=C(N)N)C(=O)N[C@@H](CC(C)C)C(=O)N[C@@H](CCCN)C(N)=O [2f-LIGRLO-NH2, reference compound] (2Furoyl-LIGRL[Orn]-NH2)
[2]
  Kb: 794 nM

## CCc1ccc2c(F)ccc(C(O)c3ncc[nH]3)n12 (stereo not shown) [AZ0107]
[3]
  IC50: 3160 nM

## C[C@@H](C1CCOCC1)n1c(-c2cc3c(cc2Br)OCO3)nc2cc(C(=O)Nc3ccc(C#N)cc3)ccc21 [AZ7126]
[4]
  IC50: 200 nM
[5]
  IC50: 63.1 nM
[6]
  shape of inhibition of trypsin-induced Ca^2+ mobilisation: biphasic inhibition curves
[7]
  IC50: 7.94 nM
[3]; [10]
  IC50: 5.01 nM
[8]
  IC50: 79.4 nM

## C[C@@H](C1CCCCC1)n1c(-c2cc3c(cc2Br)OCO3)nc2cc(C(=O)Nc3ccccc3)ccc21 [AZ8935]
[4]
  IC50: 1260 nM
[5]
  IC50: 380 nM
[6]
  shape of inhibition of trypsin-induced Ca^2+ mobilisation: biphasic inhibition curves
[7]
  IC50: 20 nM
[3]; [10]
  IC50: 7.94 nM
[8]
  IC50: 302 nM

## CC[C@H](C)[C@H](NC(=O)[C@H](CC1CCCCC1)NC(=O)c1ccno1)C(=O)NCc1cccc(C(=O)N2CCC(CN)CC2)c1 [GB110, reference compound]
[9]; [compound],M -4.30103
  Ca2+ response (Fig 2c), individual replicate values: 2.5854 and 0.2936 and 4.934 and 1.6114
[9]; [compound],M -4.77815
  Ca2+ response (Fig 2c), individual replicate values: 2.299 and 3.846 and -3.259
[9]; [compound],M -5.25527
  Ca2+ response (Fig 2c), individual replicate values: 4.705 and 2.815 and -0.222 and 3.388
[9]; [compound],M -5.73239
  Ca2+ response (Fig 2c), individual replicate values: 1.44 and 1.382
[9]; [compound],M -6.20952
  Ca2+ response (Fig 2c), individual replicate values: 3.273 and 1.783 and 1.382 and 0.4082
[9]; [compound],M -6.68664
  Ca2+ response (Fig 2c), individual replicate values: 2.872 and -6.524
[9]; [compound],M -7.16376
  Ca2+ response (Fig 2c), individual replicate values: -2.227 and 0.1217 and -2.055 and -7.498
[9]; [compound],M -7.64088
  Ca2+ response (Fig 2c), individual replicate values: -2.514 and 3.502 and -1.826 and -6.754
[9]; [compound],M -8.118
  Ca2+ response (Fig 2c), individual replicate values: -3.774 and -3.545 and -0.5085
[9]; [compound],M -8.59512
  Ca2+ response (Fig 2c), individual replicate values: -10.4777 and -3.774 and -5.436 and -3.201

## Trypsin
[1]; agonist alone, AZ3451 0 µM
  Emax: 102
  Relative activity: 1
[1]; agonist alone, AZ3451 0 µM, read-out: EC50
  EC50: 6 nM
[1]; [11]
  Emax: 96
  Relative activity: 0.43
[1]; [12]
  Emax: 90
  Relative activity: 0.28
[1]; [13]
  Emax: 90
  Relative activity: 0.20
[1]; [14]
  Emax: 89
  Relative activity: 0.17
[1]; [15]
  Emax: 74
  Relative activity: 0.12
[1]; [16]
  Emax: 61
  Relative activity: 0.09
